According to patent US20220274947A1, “NOVEL HETEROARYL-TRIAZOLE COMPOUNDS AS PESTICIDES” (Bayer Aktiengesellschaft, priority 2019, published 2022):

What was measured:
Type in all cases: in vivo
Rhipicephalus microplus [1] = experiment: Rhipicephalus (Boophilus) microplus injection test (BOOPMI Inj); settings: 168 h, injection into adult engorged female ticks, egg deposition after 7 days, read-out: activity (efficacy: 100% means all eggs are infertile); for pest or weed control at 0.004 mg: application rate 4 μg/tick; for pest or weed control at 0.02 mg: application rate 20 μg/tick
Outline: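 Five engorged adult female R. microplus ticks injected into the abdomen with 1 μL of compound diluted in DMSO, then kept in a climate chamber. Fertile egg deposition checked after 7 days; eggs without visible fertility held until hatching at about 42 days. Efficacy: 100% = all eggs infertile, 0% = all fertile.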

Rhipicephalus microplus [2] = experiment: Rhipicephalus (Boophilus) microplus in-vitro contact test, larval cattle tick, strain Parkhurst (BOOPMI Cont); settings: application rate 5 μg/cm^2 (=500 g/ha), tick larvae, after 48 hours, read-out: activity (efficacy: 100% means all larvae are dead or moribund)
Outline: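 Acetone solutions dried onto glass tube walls (900 ppm giving 5 μg/cm^2); 20-50 pyrethroid-resistant Parkhurst larvae added per tube and held 48 h at 27° C., 85% relative humidity. Efficacy scored by negative geotaxis as % dead or moribund larvae.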

Rhipicephalus microplus [3] = experiment: Rhipicephalus (Boophilus) microplus dip test (BOOPMI Dip); settings: 168 h, application rate 100 ppm, engorged adult female ticks, after 7 days, read-out: activity (efficacy: 100% means all eggs are infertile)
Method: Rhipicephalus (Boophilus) Microplus—Dip Test (BOOPMI Dip)
Test Animal: cattle ticks (Rhipicephalus microplus) strain parkhurst, SP-resistant Solvent: dimethyl sulfoxide
To produce a suitable preparation of active compound, 10 mg of active compound are dissolved in 0.5 mL solvent, and the concentrate is diluted with water to the desired concentration.
This compound solution is pipetted into tubes. 8-10 engorged, adult, female cattle ticks (Rhipicephalus microplus) are placed in perforated tubes. These tubes are immersed in the aqueous compound solution until the ticks are completely moistened. After the liquid has drained off, the ticks are transferred to a filter paper in a plastic tray and stored in a climate chamber.
After 7 days egg deposition of fertile eggs is monitored. Eggs where fertility is not visible are stored in a climate chamber till hatching after about 42 days. An efficacy of 100% means all eggs are infertile; 0% means all eggs are fertile.

Ctenocephalides felis [4] = experiment: Ctenocephalides felis oral test (CTECFE Oral); settings: 48 h, read-out: activity (mortality)
Outline: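 About 20 unfed adult cat fleas fed through parafilm on cattle blood containing compound (DMSO concentrate diluted in blood to the desired concentration). Blood held at 37 °C, fleas at room temperature. Mortality (%) scored after 2 days.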

Rhipicephalus sanguineus = Rhipicephalus sanguineus in-vitro contact test, adult brown dog ticks (RHIPSA Cont); settings: 48 h, after 48 hours, read-out: activity (efficacy: 100% means all ticks are dead or moribund); for pest or weed control at 1 µg/cm2, 100 g/ha: application rate 1 μg/cm^2 (=100 g/ha); for pest or weed control at 5 µg/cm2, 500 g/ha: application rate 5 μg/cm^2 (=500 g/ha)
Outline: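 Mortality of adult R. sanguineus was judged 48 h after contact with acetone-applied residues on glass tube walls. Ticks that stayed immotile or moved without coordination when heated to 45–50 °C (max 5 min) counted as dead or moribund.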

Diabrotica balteata = Diabrotica balteata spray test; settings: 168 h, wheat seeds, larvae, after 7 days, read-out: activity (efficacy: 100% means all seedlings have grown up like in the untreated, uninfected control); for pest or weed control at 32 µg/disc, 100 g/ha: application rate 100 g/ha (=32 μg/well); for pest or weed control at 160 µg/disc, 500 g/ha: application rate 500 g/ha (=160 μg/well)
Outline: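 Wheat seedlings, germinated 1 day on agar, were sprayed with compound in acetone/DMF diluted in water containing emulsifier, then infested with 10-20 Diabrotica balteata larvae. After 7 days efficacy in % was scored: 100% means seedlings grew like the untreated, uninfected control; 0% means none grew.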

Myzus persicae = Myzus persicae oral test; settings: 120 h, read-out: activity (mortality)
Outline: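 Percent mortality was recorded at day 5, where 0% means no aphids killed. Compound prepared from an acetone concentrate diluted in water and combined with IPL41 medium containing sugar was offered to mixed-stage green peach aphids, which sucked it through a parafilm seal.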

Nezara viridula = Nezara viridula spray test; settings: in Hordeum vulgare, 96 h, barley plants, larvae, after 4 days; for mortality at 500 g/ha: application rate 500 g/ha
Outline: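 Barley plants infested with N. viridula larvae were sprayed with compound in acetone/DMF diluted with water containing 1000 ppm alkylarylpolyglycol ether emulsifier. Mortality (%) was scored after 4 days; 100% means all bugs killed, 0% none.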

Spodoptera frugiperda = Spodoptera frugiperda spray test; settings: in Zea mays, 168 h, read-out: activity (mortality)
Outline: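 Maize leaf sections were sprayed with compound formulated in acetone/DMF and diluted in water containing 1000 ppm emulsifier. Dried leaves were infested with fall armyworm larvae, and percent mortality was scored after 7 days.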

Ctenocephalides felis [5] = experiment: Ctenocephalides felis in-vitro contact test, adult cat flea (CTECFE Cont); settings: application rate 5 μg/cm^2 (=500 g/ha), adult cat fleas, after 48 hours, read-out: activity (efficacy: 100% means all fleas are dead or moribund)
Outline: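 Acetone solutions coated on glass tube inner walls (900 ppm giving 5 μg/cm^2), then 5-10 adult fleas added and held 48 h at room temperature. Fleas unable to escape a 45-50° C. heating plate within 5 min scored dead or moribund; efficacy = % dead/moribund.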

[6] = system: Aedes aegypti strain MONHEIM; experiment: Aedes aegypti test (AEDSAE surface treatment & contact assay); settings: surface concentration 20 mg/m^2, glazed tile, exposure 30 minutes, 24 hours after contact, read-out: efficacy (mortality)
Outline: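 Compound dissolved in acetone (2 mg/ml) with 2000 ppm rapeseed oil methyl ester, pipetted onto glazed tile and dried. Adult mosquitoes exposed on the surface for 30 min; percent mortality scored 24 h after contact.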

Nilaparvata lugens = Nilaparvata lugens spray test; settings: 96 h, rice plants, after 4 days; for mortality at 100 g/ha: application rate 100 g/ha; for mortality at 500 g/ha: application rate 500 g/ha
Method: Nilaparvata lugens—Spray Test Solvent: 78.0 parts by weight of acetone • • 1.5 parts by weight of dimethylformamide Emulsifier: alkylarylpolyglycol ether
To produce a suitable preparation of active compound, 1 part by weight of active compound is mixed with the stated amount of solvents and is diluted with water, containing an emulsifier concentration of 1000 ppm, to the desired concentration. Further test concentrations are prepared by dilution with emulsifier containing water.
Rice plants (Oryza sativa) are sprayed with a preparation of the active ingredient of the desired concentration and the plants are infested with the brown planthopper (Nilaparvata lugens).
After 4 days mortality in % is determined. 100% means all planthoppers have been killed and 0% means none of the planthoppers have been killed.

[7] = system: Culex quinquefasciatus strain P00; experiment: Culex quinquefasciatus test (CULXFA surface treatment & contact assay); settings: surface concentration 20 mg/m^2, glazed tile, exposure 30 minutes, 24 hours after contact, read-out: efficacy (mortality)
Method: Culex quinquefasciatus Test (CULXFA Surface Treatment & Contact Assay) Solvent: Aceton+2000 ppm rapeseed oil methyl ester (RME)
(§1) In order to produce a sufficient, active ingredient containing solution it is necessary to solve the test compound in the solvent-mix (acetone at 2 mg/ml/RME 2 000 ppm). This solution is pipetted onto a glazed tile and after evaporation of the acetone, adult mosquitoes of the species Culex quinquefasciatus strain P00 are placed onto the dried surface. The exposure time is 30 minutes. Mortality in percent (%) is determined 24 hours after contact of the insects to the treated surface. 100% mortality means that all tested insects are dead, whereas 0% means that no insect died.

[8] = system: Anopheles funestus strain FUMOZ-R; experiment: Anopheles funestus test (ANPHFU surface treatment & contact assay); settings: exposure 30 minutes, 24 hours after contact, read-out: efficacy (mortality)
Method: Anopheles funestus Test (ANPHFU Surface Treatment & Contact Assay) Solvent: Aceton+2000 ppm rapeseed oil methyl ester (RME)
as §1, with “2000” for “2 000”, “Anopheles funestus” for “Culex quinquefasciatus”, “FUMOZ-R (Hunt et al., Med. Vet. Entomol. 2005 September; 19(3): 271-275)” for “P00”

[9] = system: Musca domestica strain WHO—N; experiment: Musca domestica test (MUSCDO surface treatment & contact assay); settings: surface concentration 20 mg/m^2, glazed tile, exposure 30 minutes, 24 hours after contact, read-out: efficacy (mortality)
Outline: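 Compound dissolved in acetone (2 mg/ml) with 2000 ppm rapeseed oil methyl ester and pipetted onto glazed tile; after acetone evaporation, adult flies exposed to dried surface for 30 minutes. Mortality (%) scored 24 hours after contact.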

| SMILES | pest or weed control at 0.004 mg (Rhipicephalus microplus [1]) | pest or weed control at 0.02 mg (Rhipicephalus microplus [1]) | pest or weed control at 5 µg/cm2 (Rhipicephalus microplus [2]) | mortality at 100 ppm (Ctenocephalides felis [4]) | pest or weed control at 1 µg/cm2, 100 g/ha (Rhipicephalus sanguineus) | pest or weed control at 32 µg/disc, 100 g/ha (Diabrotica balteata) | pest or weed control at 160 µg/disc, 500 g/ha (Diabrotica balteata) | mortality at 4 ppm (Myzus persicae) | mortality at 500 g/ha (Nezara viridula) | mortality at 100 g/ha (Spodoptera frugiperda) | mortality at 500 g/ha (Spodoptera frugiperda) | mortality at 20 mg/m2 [6] | pest or weed control at 5 µg/cm2, 500 g/ha (Rhipicephalus sanguineus) | mortality at 100 g/ha (Nilaparvata lugens) | also measured |
| --- | --- | --- | --- | --- | --- | --- | --- | --- | --- | --- | --- | --- | --- | --- | --- |
| CC(C)c1nc([C@H](C)NC(=O)c2cc(C(F)(F)F)cc(C(F)(F)F)c2)n(-c2ccc(C#N)cn2)n1 [I-7] | 100% | 100% | 100% | 100% | 100% | 100% | 100% | 100% | 100% | 100% | 83% | – | – | – | pest or weed control at 100 ppm (Rhipicephalus microplus [3]): 100% |
| CC(C)c1nc([C@H](C)NC(=O)c2cc(Cl)cc(C(F)(F)F)c2)n(-c2ccc(C#N)cn2)n1 [I-8] | 100% | 100% | 80% | – | – | 100% | 100% | – | – | 100% | 100% | 80 to 100% | – | – | pest or weed control at 100 ppm (Rhipicephalus microplus [3]): 100%; pest or weed control at 5 µg/cm2 (Ctenocephalides felis [5]): 80% |
| CC(C)c1nc([C@H](C)NC(=O)c2cc(Br)cc(OC(F)(F)F)c2)n(-c2ccc(C#N)cn2)n1 [I-26] | 100% | 100% | 100% | – | 80% | 100% | – | – | – | 100% | – | 80 to 100% | 100% | 90% | – |
| C[C@H](NC(=O)c1cc(Cl)cc(C(F)(F)C(F)(F)F)c1)c1nc(C2CC2)nn1-c1ccc(C#N)cn1 [I-43] | 100% | – | 100% | 100% | – | 100% | – | – | – | 100% | – | – | – | 90% | – |
| C[C@H](NC(=O)c1cccc(C(F)(F)F)n1)c1ncnn1-c1ccc(C#N)cn1 [II-4] | – | 100% | – | – | 100% | 80% | 100% | – | – | 100% | 100% | 80 to 100% | 100% | – | mortality at 20 mg/m2 [7]: 80 to 100%; mortality at 4 mg/m2 ([8]; surface concentration 4 mg/m^2, glazed tile): 80 to 100%; mortality at 20 mg/m2 ([8]; surface concentration 20 mg/m^2, glazed tile): 80 to 100%; mortality at 20 mg/m2 [9]: 80 to 100% |
| C[C@H](NC(=O)c1cc(C(F)(F)F)cc(C(F)(F)F)c1)c1ncnn1-c1ccc(S(C)(=O)=O)cn1 [II-44] | 100% | 100% | 100% | – | 100% | 100% | 100% | 100% | 100% | 100% | 100% | – | 100% | – | mortality at 500 g/ha (Nilaparvata lugens): 90% |
| C[C@H](NC(=O)c1cc(C(F)(F)F)cc(C(F)(F)F)c1)c1ncnn1-c1ccc(C(=O)N(C)CC(F)(F)F)cn1 [II-74] | 100% | 100% | 100% | – | 100% | 100% | 100% | 100% | 100% | 100% | 100% | – | 100% | – | pest or weed control at 5 µg/cm2 (Ctenocephalides felis [5]): 100%; mortality at 500 g/ha (Nilaparvata lugens): 90% |
| Cc1nc([C@H](C)NC(=O)c2cc(C(F)(F)F)cc(C(F)(F)F)c2)n(-c2ccc(C(=O)N(C)CCN(C)C)cn2)n1 [II-95] | 80% | – | 90% | 100% | 100% | – | – | 90% | – | – | – | – | – | 90% | mortality at 100 g/ha (Nezara viridula; application rate 100 g/ha): 100% |
